Literature values in US20160303050A1, “FORMULATIONS CONTAINING DIACEREIN AND METHODS OF LOWERING BLOOD LEVELS OF URIC ACID USING THE SAME” (TWi Biotechnology, Inc., priority 2015, published 2016).

Settings: single oral administration of 50 mg, healthy volunteers

fasting Tmax (fasting): 2.4 h
Tmax with a meal (with a meal): 5.2 h
Compound: CC(=O)Oc1cccc2c1C(=O)c1c(OC(C)=O)cc(C(=O)O)cc1C2=O [diacerein, 4,5-bis (acetyloxy) 9,10-dihydro-4,5-dihydroxy-9,10-dioxo-2-anthracenecarboxylic acid]
